Test results as given in patent US7838491B2, “Self-assembly and mineralization of peptide-amphiphile nanofibers” (Northwestern University, priority 2001, dated 2010).
Square brackets hold non-standard residues; d marks the D form. Peptide text beside a SMILES is read from it. * marks the point of attachment. Palmitoyl = CCCCCCCCCCCCCCCC(=O)*; pS = N[C@@H](COP(=O)(O)O)C(=O)O

How the values were obtained:
Assay type in all cases: physicochemical
[1] = TEM / cryo-TEM of self-assembled fibers
Method: (§1) After synthesis (see, example 10), the PA of FIG. 1 (characterized by ^1H NMR and MALDI-TOF MS: [M-H]^−1=1333) was treated with dithiothreitol (DTT) at a pH of 8 to reduce all cysteine residues to free thiols. […] Solutions more concentrated than 2.5 mg/ml form birefringent gels in water that are self-supporting upon inversion of the container. […] Negatives were digitized in the Umax PowerLook scanner with resolution 1200 dpi. The average thickness of the PA fibers was determined by two different procedures. First the Fourier transform of the images and following measurements of the distances between the peaks were performed in the NIH Image […] program. The second approach applied was averaging technique based on the cross-correlation method, widely used in single particle reconstruction using the EMAN […] program. For each data set 1200-1300 individual boxes were selected.

[2] = stability of fibers in alkaline solution (pH 8)
Description: Following self-assembly of PA molecules into fibers, the cysteine thiol groups were oxidized by treatment with 0.01M iodine. […] Importantly, the covalent capture process of this invention can be easily reversed by treating the fibers with a mild reducing agent such as DTT. […] Together with the controlled self-assembly, reversible cross-linking provides a highly dynamic system which can interconvert between discrete molecules, self-assembled supramolecular fibers, covalently captured polymeric fibers and back again to single small molecules depending solely on the environment in which the material is placed.

[3] = pH triggered self-assembly and gelation
Method: as §1
Upon lowering the pH below 4 with HCl the material self-assembles; when the pH is brought back to neutrality with KOH it disassembles. This pH triggered self-assembly and gelation allows the material to respond to its environment and thus may have applications in controlled release of molecules (W. A. Petka, J. L. Hardin, K. P. McGrath, D. Wirtz, D. A. Tirrell, Science 281, 389-392 (1998)).

[4] = solubility of the PA in water
Method: as §1

CCCCCCCCCCCCCCCC(=O)N[C@@H](CS)C(=O)N[C@@H](CS)C(=O)N[C@@H](CS)C(=O)N[C@@H](CS)C(=O)NCC(=O)NCC(=O)NCC(=O)N[C@@H](COP(=O)(O)O)C(=O)N[C@@H](CCCNC(=N)N)C(=O)NCC(=O)N[C@@H](CC(=O)O)C(=O)O [PA 1, CCCCGGGS(P)RGD] (Palmitoyl-CCCCGGG[pS]RGD-OH)
fiber diameter ([1]; TEM, positively and negatively stained dried fibers): 6.0±1 nm | fiber length ([1]; cryo-TEM of gels): up to several microns | fiber diameter ([1]; cryo-TEM, native hydrated state): 7.6±1 nm | stability to alkaline solutions [2]: disassemble within minutes | concentration dependence of fiber formation ([3]; 0.01 mg/ml to 50 mg/ml): concentration independent | behaviour when pH is brought back to neutrality ([3]; KOH): disassembles | concentration at which solutions form self-supporting birefringent gels ([3]; in water): > 2.5 mg/mL | pH at which the material self-assembles ([3]; pH lowered with HCl): below 4 | solubility upon acidification ([4]; solution below pH 4): rapidly becomes insoluble | solubility ([4]; water, pH 8, after DTT reduction of cysteines): > 50 mg/mL
